Laboratory results from ChEMBL document CHEMBL1132007, “The synthesis and biological evaluation of non-peptidic matrix metalloproteinase inhibitors” (Bioorg Med Chem Lett, 1999).
pIC50: −log10 of the molar value.

Key:
[1] = target: Stromelysin-1 (Homo sapiens) (UniProt P08254)
Neutrophil collagenase = Neutrophil collagenase (Homo sapiens, UniProt P22894)
Interstitial collagenase = target: T1, Interstitial collagenase (Homo sapiens, UniProt P03956)
T1 sequence (P03956 whole entry): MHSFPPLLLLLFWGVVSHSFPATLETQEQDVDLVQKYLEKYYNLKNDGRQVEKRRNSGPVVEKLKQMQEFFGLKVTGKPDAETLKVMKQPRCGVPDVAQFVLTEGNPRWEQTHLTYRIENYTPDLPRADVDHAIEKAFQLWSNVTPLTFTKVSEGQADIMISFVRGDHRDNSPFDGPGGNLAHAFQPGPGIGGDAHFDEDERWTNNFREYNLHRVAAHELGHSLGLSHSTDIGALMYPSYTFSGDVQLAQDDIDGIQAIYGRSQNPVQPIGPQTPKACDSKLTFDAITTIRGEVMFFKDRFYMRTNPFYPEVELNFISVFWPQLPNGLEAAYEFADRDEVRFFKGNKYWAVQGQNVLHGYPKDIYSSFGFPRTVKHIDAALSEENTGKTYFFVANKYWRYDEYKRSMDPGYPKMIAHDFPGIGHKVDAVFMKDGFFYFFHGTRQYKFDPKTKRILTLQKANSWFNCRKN

Rattus norvegicus = species: Rattus norvegicus; conditions: in vivo, po
in vivo = conditions: rat, po

Chain of Neutrophil collagenase (P22894 whole entry): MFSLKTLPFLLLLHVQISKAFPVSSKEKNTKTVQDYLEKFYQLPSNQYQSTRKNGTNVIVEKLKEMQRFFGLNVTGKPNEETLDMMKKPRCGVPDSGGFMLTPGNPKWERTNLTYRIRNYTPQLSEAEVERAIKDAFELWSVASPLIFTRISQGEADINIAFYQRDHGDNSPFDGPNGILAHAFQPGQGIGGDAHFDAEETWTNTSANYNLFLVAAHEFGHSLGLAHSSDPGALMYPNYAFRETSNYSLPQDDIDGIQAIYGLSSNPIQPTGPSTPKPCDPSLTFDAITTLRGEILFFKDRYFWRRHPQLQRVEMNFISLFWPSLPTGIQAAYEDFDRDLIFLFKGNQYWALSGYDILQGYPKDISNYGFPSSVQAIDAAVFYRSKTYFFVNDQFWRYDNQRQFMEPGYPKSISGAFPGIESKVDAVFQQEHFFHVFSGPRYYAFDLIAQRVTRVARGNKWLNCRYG
Chain of Stromelysin-1 (Homo sapiens) (P08254 whole entry, looked up): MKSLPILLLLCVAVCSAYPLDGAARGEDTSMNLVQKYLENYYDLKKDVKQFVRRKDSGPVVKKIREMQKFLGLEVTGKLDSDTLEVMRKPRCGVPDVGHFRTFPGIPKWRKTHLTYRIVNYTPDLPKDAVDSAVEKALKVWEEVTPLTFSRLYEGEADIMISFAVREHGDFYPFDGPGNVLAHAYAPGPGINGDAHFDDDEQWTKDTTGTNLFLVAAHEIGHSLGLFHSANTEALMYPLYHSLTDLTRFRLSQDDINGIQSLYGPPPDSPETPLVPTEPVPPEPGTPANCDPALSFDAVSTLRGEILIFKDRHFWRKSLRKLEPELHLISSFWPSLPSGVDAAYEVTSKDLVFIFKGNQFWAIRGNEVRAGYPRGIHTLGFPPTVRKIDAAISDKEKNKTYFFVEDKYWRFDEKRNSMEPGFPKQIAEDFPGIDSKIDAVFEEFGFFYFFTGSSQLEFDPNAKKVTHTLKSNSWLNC

Compound | pIC50 (Interstitial collagenase) | other results
CC(C)C[C@@H](C(=O)N1CCCCC1)[C@H](O)C(=O)NO | 6.10 | IC60 [1]: 100000 nM; pIC50 (Neutrophil collagenase): 6.00
CC(C)C[C@@H](C(=O)N1CCOCC1)[C@H](CN1C(=O)c2ccccc2C1=O)C(=O)NO | 7.70 | pIC50 (Neutrophil collagenase): 6.22
CC(C)C[C@@H](C(=O)N(C)C)[C@H](CN(C)S(C)(=O)=O)C(=O)NO | 6.00 | –
COc1ccc(S(=O)(=O)N(C)C[C@H](C(=O)NO)[C@@H](CC2CCCC2)C(=O)N2CCOCC2)cc1 | 8.00 | –
CC(C)C[C@@H](C(=O)N1CCCCC1)[C@H](CN(C)S(C)(=O)=O)C(=O)NO | 7.22 | –
CS(=O)(=O)N(C[C@H](C(=O)NO)[C@@H](CC1CCCC1)C(=O)N1CCCCC1)C1CC1 | 8.00 | –
CN(C[C@H](C(=O)NO)[C@@H](CC1CCCC1)C(=O)N1CCCCC1)S(C)(=O)=O | – | AUC (Rattus norvegicus): 662 ng·h/mL; Cmax at 0.5 h (in vivo): 172 ng/mL

Continued, in another order:

pIC50 (Interstitial collagenase) | Compound | other results
8.05 | CN(C[C@H](C(=O)NO)[C@@H](CC1CCCC1)C(=O)N1CCCCC1)S(=O)(=O)c1ccc(Cl)cc1 | –
8.22 | CN(C[C@H](C(=O)NO)[C@@H](CC1CCCC1)C(=O)N1CCCCC1)S(=O)(=O)c1cccc2ccccc12 | –
8.30 | CN(C[C@H](C(=O)NO)[C@@H](CC1CCCC1)C(=O)N1CCOCC1)S(C)(=O)=O | –
